According to publication PMC10303384, “The Effect of Terbinafine and Its Ionic Salts on Certain Fungal Plant Pathogens” (Molecules, 2023):
Read-outs that look alike come from different tables or passages of the source.

Key:
Valsa malicola (V. mali) = assay: In vitro fungicidal activity, mycelial (hyphae) growth inhibition on PDA; format: cell-based
[1] = test system: Botrytis cinerea (B. cinerea); assay: as above; format: cell-based
[2] = test system: Pyricularia oryzae (P. oryzae); assay: microbe, parasite or virus in culture; format: cell-based; conditions: for Inhibition Rate at 50 mg/L (%) P. o: mean ± SD of three replicates
[3] = test system: Phomopsis capsici (P. capsica); assay: In vitro fungicidal activity, mycelial (hyphae) growth inhibition on PDA; format: cell-based
[4] = test system: Alternaria solani (A. solani); assay: as above; format: cell-based
[5] = test system: Rhizoctonia solani (R. solani); assay: microbe, parasite or virus in culture; format: cell-based
[6] = test system: Fusarium graminearum (F. graminearum); assay: microbe, parasite or virus in culture; format: cell-based; conditions: for Inhibition Rate at 50 mg/L (%) F. g: mean ± SD of three replicates
[7] = test system: Pythium aphanidermatum (P. aphanidermatum); assay: In vitro fungicidal activity, mycelial (hyphae) growth inhibition on PDA; format: cell-based
[8] = Solubility classification in representative solvents (Vogel protocol); format: physicochemical; conditions: 25 °C, test amount 0.1 g; for solubility: thermodynamic from solid
Method: This investigation details how to determine the solubility of terbinafine and its salts, guided by the experimental protocol in Vogel’s Textbook of Practical Organic Chemistry. Based on the Snyder polarity index values of the representative solvents, each solvent was tested for its ability to dissolve the target analytes. The solubility data was classified into three categories based on the observed extent of dissolution. […] The experimental procedures were performed at 25 °C and under ambient pressure.

[9] = Solubility of saturated solutions by HPLC at 25 °C; format: physicochemical; conditions: for solubility at 15 min: thermodynamic from solid
Source text: The filtrate was then passed through a 0.22 μm nylon membrane filter and subjected to HPLC analysis. Based on Wang’s report about the chromatographic parameters, modifications to the mobile phase ratio were made. The replicability of the results was ensured by performing each measurement in triplicate.

[10] = test system: B. cinerea on cherry tomatoes; assay: In vivo antifungal bioassay on cherry tomatoes; parameters: species or system Botrytis cinerea; conditions: 20 mg/L; for Diameter of infection (cm) 4 days: 4 days after treatment; for Diameter of infection (cm) 7 days: 7 days after treatment
[11] = Surface tension of saturated aqueous solutions, Du Noüy ring method; conditions: 25 °C
Method: This method involved adjusting the stage positioning of the solvent container such that a platinum ring could be immersed below the liquid interface or pulled through the meniscus. […] The maximum force was recorded as the surface tension of the solvent. To ensure accuracy, the platinum ring was thoroughly cleaned between each measurement through rinsing with double-distilled water and wiping it dry. The surface tension determination was performed in quadruplicate.

[12] = read-out: EC50 (μmol/L), P. oryzae
[13] = Fusarium graminearum, F. graminearum
[14] = read-out: EC50 (μmol/L), F. graminearum
[15] = DMSO, organic solvent or mixture, Snyder polarity index 6.5, read-out: Solubility in DMSO
[16] = acetone, organic solvent or mixture, Snyder polarity index 5.1, read-out: Solubility in Acetone
[17] = acetonitrile, organic solvent or mixture, Snyder polarity index 6.2, read-out: Solubility in Acetonitrile
[18] = chloroform, organic solvent or mixture, Snyder polarity index 4.1, read-out: Solubility in Chloroform
[19] = ethyl acetate, organic solvent or mixture, Snyder polarity index 4.3, read-out: Solubility in Ethyl acetate
[20] = isopropanol, organic solvent or mixture, read-out: Solubility in Isopropanol
[21] = methanol, organic solvent or mixture, Snyder polarity index 6.6, read-out: Solubility in Methanol
[22] = n-hexane, organic solvent or mixture, Snyder polarity index 0.0, read-out: Solubility in n-Hexane
[23] = toluene, organic solvent or mixture, Snyder polarity index 2.3, read-out: Solubility in Toluene
[24] = water, Snyder polarity index 9.0, read-out: Solubility in Water
[25] = isopropanol, organic solvent or mixture, Table S1, read-out: Solubility, Isopropanol
[26] = n-hexane, organic solvent or mixture, Table S1, read-out: Solubility, n-Hexane
[27] = water, Table S1, read-out: Solubility, Water

Compound: CN(C/C=C/C#CC(C)(C)C)Cc1cccc2ccccc12.O=C(O)c1ccccc1O [TIS 1, (E)-N,6,6-trimethyl-N-(naphthalen-1-ylmethyl)hept-2-en-4-yn-1-aminium 2-hydroxybenzoate]
- EC50 (Valsa malicola (V. mali)): 2.24 µg/mL
- Inhibition Rate at 50 mg/L (%) V. m (Valsa malicola (V. mali)): 100 ± 0%
- EC50 (Valsa malicola (V. mali); read-out: EC50 (μmol/L)): 5.21 µmol/L
- Inhibition Rate at 50 mg/L (%) B. c [1]: 100 ± 0%
- EC50 ([1]; Botrytis cinerea): 0.14 µg/mL
- EC50 ([1]; read-out: EC50 (μmol/L)): 0.32 µmol/L
- Inhibition Rate at 50 mg/L (%) P. o [2]: 99.05 ± 0.21%
- EC50 ([2]; Pyricularia oryzae, P. oryzae): 0.47 µg/mL
- EC50 [2, 12]: 1.1 µmol/L
- inhibition at 50 µg/mL ([3]; Diaporthe capsici, 50 mg/L, read-out: Inhibition Rate at 50 mg/L (%) P. c): 47 ± 1.18%
- Inhibition Rate at 50 mg/L (%) A. s [4]: 100 ± 0%
- EC50 ([4]; Alternaria solani): 0.13 µg/mL
- EC50 ([4]; read-out: EC50 (μmol/L)): 0.3 µmol/L
- Inhibition Rate at 50 mg/L (%) R. s [5]: 84.79 ± 1.25%
- EC50 ([5]; Rhizoctonia solani): 2.49 µg/mL
- EC50 ([5]; read-out: EC50 (μmol/L)): 5.81 µmol/L
- Inhibition Rate at 50 mg/L (%) F. g [6]: 100 ± 0%
- EC50 [6, 13]: 0.1 µg/mL
- EC50 [6, 14]: 0.23 µmol/L
- inhibition at 50 µg/mL ([7]; Pythium aphanidermatum, 50 mg/L, read-out: Inhibition Rate at 50 mg/L (%) P. a): 74.61 ± 0.38%
- solubility [8, 15]: > 100 mg/mL
- solubility [8, 16]: > 100 mg/mL
- solubility [8, 17]: > 100 mg/mL
- solubility [8, 18]: > 100 mg/mL
- solubility [8, 19]: > 100 mg/mL
- solubility [8, 20]: < 33.3 mg/mL
- solubility [8, 21]: > 100 mg/mL
- solubility [8, 22]: < 33.3 mg/mL
- solubility [8, 23]: > 100 mg/mL
- solubility [8, 24]: < 33.3 mg/mL
- solubility at 15 min [9, 25]: 5.18 µM
- solubility at 15 min [9, 26]: 0.502 µM
- solubility at 15 min [9, 27]: 284 µM
- Diameter of infection (cm) 4 days [10]: 0.78 cm
- Diameter of infection (cm) 7 days [10]: 1.10 cm
- surface tension of the saturated aqueous solution [11]: 58.33 mN·m^−1

Compound: CN(C/C=C/C#CC(C)(C)C)Cc1cccc2ccccc12.O=C(O)C1C(C(=O)O)[C@@]2(Cl)C(Cl)=C(Cl)[C@]1(Cl)C2(Cl)Cl [TIS 2, (E)-N,6,6-trimethyl-N-(naphthalen-1-ylmethyl)hept-2-en-4-yn-1-aminium (1S,4R)-3-carboxy-1,4,5,6,7,7-hexachlorobicyclo [2.2.1]hept-5-ene-2-carboxylate]
- Inhibition Rate at 50 mg/L (%) V. m (Valsa malicola (V. mali); mean ± SD of three replicates): 100 ± 0%
- EC50 (mg/L) (Valsa malicola (V. mali); V. mali): 4.28 mg/L
- EC50 (Valsa malicola (V. mali); V. mali, read-out: EC50 (μmol/L)): 6.29 µmol/L
- Inhibition Rate at 50 mg/L (%) B. c ([1]; mean ± SD of three replicates): 100 ± 0%
- EC50 (mg/L) ([1]; B. cinerea): 0.25 mg/L
- EC50 ([1]; B. cinerea, read-out: EC50 (μmol/L)): 0.37 µmol/L
- Inhibition Rate at 50 mg/L (%) P. o [2]: 96.09 ± 0.36%
- EC50 (mg/L) ([2]; P. oryzae): 0.88 mg/L
- EC50 ([2]; P. oryzae, read-out: EC50): 1.29 µmol/L
- Inhibition Rate at 50 mg/L (%) P. c ([3]; mean ± SD of three replicates): 43.85 ± 1.61%
- Inhibition Rate at 50 mg/L (%) A. s ([4]; mean ± SD of three replicates): 98.8 ± 0%
- EC50 (mg/L) ([4]; A. solani): 0.18 mg/L
- EC50 ([4]; A. solani, read-out: EC50 (μmol/L)): 0.27 µmol/L
- EC50 (mg/L) [5]: 3.32 mg/L
- Inhibition Rate at 50 mg/L (%) R. s [5]: 80.75 ± 0.72%
- EC50 ([5]; read-out: EC50): 4.88 µmol/L
- Inhibition Rate at 50 mg/L (%) F. g [6]: 100 ± 0%
- EC50 (mg/L) ([6]; F. graminearum): 0.16 mg/L
- EC50 ([6]; F. graminearum, read-out: EC50): 0.24 µmol/L
- Inhibition Rate at 50 mg/L (%) P. a ([7]; mean ± SD of three replicates): 69.65 ± 1.7%
- Solubility in n-Hexane ([8]; Snyder polarity index 0.0): − (“−” means insoluble in a 3 mL solvent, poor solubility)
- Solubility in Toluene ([8]; Snyder polarity index 2.3): − (“−” means insoluble in a 3 mL solvent, poor solubility)
- Solubility in Chloroform ([8]; Snyder polarity index 4.1): − (“−” means insoluble in a 3 mL solvent, poor solubility)
- Solubility in Ethyl acetate ([8]; Snyder polarity index 4.3): − (“−” means insoluble in a 3 mL solvent, poor solubility)
- Solubility in Isopropanol ([8]; Snyder polarity index 4.3): − (“−” means insoluble in a 3 mL solvent, poor solubility)
- Solubility in Acetone ([8]; Snyder polarity index 5.1): − (“−” means insoluble in a 3 mL solvent, poor solubility)
- Solubility in Acetonitrile ([8]; Snyder polarity index 6.2): − (“−” means insoluble in a 3 mL solvent, poor solubility)
- Solubility in DMSO ([8]; Snyder polarity index 6.5): + (“+” means soluble in a 1 mL solvent, good solubility)
- Solubility in Methanol ([8]; Snyder polarity index 6.6): − (“−” means insoluble in a 3 mL solvent, poor solubility)
- Solubility in Water ([8]; Snyder polarity index 9.0): − (“−” means insoluble in a 3 mL solvent, poor solubility)
- Solubility, Acetone ([9]; Table S1): 8.23 µM
- Solubility, Acetonitrile ([9]; Table S1): 0.155 µM
- Solubility, Chloroform ([9]; Table S1): 1.39 µM
- Solubility, Ethyl acetate ([9]; Table S1): 0.456 µM
- Solubility, Isopropanol ([9]; Table S1): 0.0703 µM
- Solubility, Methanol ([9]; Table S1): 0.0554 µM
- Solubility, Toluene ([9]; Table S1): 0.366 µM
- Solubility, Water ([9]; Table S1): 5.62 µM
- Solubility, n-Hexane ([9]; Table S1): 0.0221 µM
- surface tension of the saturated aqueous solution [11]: 62.78 mN·m^−1

Compound: CN(C/C=C/C#CC(C)(C)C)Cc1cccc2ccccc12.O=C(O)/C=C\C(=O)O [TIS 3, (E)-N,6,6-trimethyl-N-(naphthalen-1-ylmethyl)hept-2-en-4-yn-1-aminium (Z)-3-carboxyacrylate]
- EC50 (Valsa malicola (V. mali)): 2.03 µg/mL
- Inhibition Rate at 50 mg/L (%) V. m (Valsa malicola (V. mali)): 100 ± 0%
- EC50 (Valsa malicola (V. mali); read-out: EC50 (μmol/L)): 4.98 µmol/L
- Inhibition Rate at 50 mg/L (%) B. c [1]: 100 ± 0%
- EC50 ([1]; Botrytis cinerea): 0.13 µg/mL
- Inhibition Rate at 50 mg/L (%) P. o [2]: 99.29 ± 0%
- EC50 ([2]; Pyricularia oryzae, P. oryzae): 0.58 µg/mL
- EC50 [2, 12]: 1.41 µmol/L
- Inhibition Rate at 50 mg/L (%) P. c [3]: 33.16 ± 2.52%
- Inhibition Rate at 50 mg/L (%) A. s [4]: 100 ± 0%
- EC50 ([4]; Alternaria solani): 0.15 µg/mL
- EC50 ([4]; read-out: EC50 (μmol/L)): 0.36 µmol/L
- better activity than terbinafine [5]: 24%
- Inhibition Rate at 50 mg/L (%) R. s [5]: 83.4 ± 0.35%
- EC50 ([5]; Rhizoctonia solani): 1.84 µg/mL
- EC50 ([5]; read-out: EC50 (μmol/L)): 4.51 µmol/L
- Inhibition Rate at 50 mg/L (%) F. g [6]: 100 ± 0%
- EC50 [6, 13]: 0.1 µg/mL
- EC50 [6, 14]: 0.24 µmol/L
- Inhibition Rate at 50 mg/L (%) P. a [7]: 69.54 ± 0%
- solubility [8, 15]: > 100 mg/mL
- solubility [8, 16]: < 33.3 mg/mL
- solubility [8, 17]: < 33.3 mg/mL
- solubility [8, 18]: > 100 mg/mL
- solubility [8, 19]: < 33.3 mg/mL
- solubility [8, 20]: < 33.3 mg/mL
- solubility [8, 21]: > 100 mg/mL
- solubility [8, 22]: < 33.3 mg/mL
- solubility [8, 23]: < 33.3 mg/mL
- solubility [8, 24]: < 33.3 mg/mL
- solubility at 15 min ([9]; acetone, organic solvent or mixture, Table S1, read-out: Solubility, Acetone): 3.76 µM
- solubility at 15 min ([9]; acetonitrile, organic solvent or mixture, Table S1, read-out: Solubility, Acetonitrile): 1490 µM
- solubility at 15 min ([9]; ethyl acetate, organic solvent or mixture, Table S1, read-out: Solubility, Ethyl acetate): 485 µM
- solubility at 15 min [9, 25]: 3.06 µM
- solubility at 15 min [9, 26]: 0.234 µM
- solubility at 15 min ([9]; toluene, organic solvent or mixture, Table S1, read-out: Solubility, Toluene): 42.1 µM
- solubility at 15 min [9, 27]: 616 µM
- Diameter of infection (cm) 4 days [10]: 0.82 cm
- Diameter of infection (cm) 7 days [10]: 1.02 cm
- surface tension of the saturated aqueous solution [11]: 61.48 mN·m^−1
